Test results as given in ChEMBL document CHEMBL2203185, “Development of sub-nanomolar dipeptidic ligands of neuropeptide FF receptors” (Bioorg Med Chem Lett, 2012).
Non-standard residues stand in square brackets, D forms with d. Residues, ends and D or L forms follow the SMILES beside them. Inp = O=C(O)C1CCNCC1

Columns and labels:
Assay type in all cases: cell-based
[1] = target: T1, Neuropeptide FF receptor 1 (Homo sapiens, UniProt Q9GZQ6); assay: Displacement of [3H]FFRF-NH2 from human flag-tagged NPFF1 receptor expressed in CHO cells by scintillation counting
T1 sequence (Q9GZQ6 whole entry): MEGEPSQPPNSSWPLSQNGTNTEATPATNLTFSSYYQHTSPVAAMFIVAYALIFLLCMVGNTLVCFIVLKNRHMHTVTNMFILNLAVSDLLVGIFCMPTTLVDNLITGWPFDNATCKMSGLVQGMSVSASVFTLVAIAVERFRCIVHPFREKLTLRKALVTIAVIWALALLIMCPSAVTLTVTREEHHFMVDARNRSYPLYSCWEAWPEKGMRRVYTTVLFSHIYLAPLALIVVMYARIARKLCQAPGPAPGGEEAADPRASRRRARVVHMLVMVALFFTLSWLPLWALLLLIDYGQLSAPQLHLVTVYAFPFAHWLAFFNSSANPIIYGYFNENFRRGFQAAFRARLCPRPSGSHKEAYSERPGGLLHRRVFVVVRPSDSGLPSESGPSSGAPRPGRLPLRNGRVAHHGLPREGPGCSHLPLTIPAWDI

[2] = target: T2, Neuropeptide FF receptor 2 (Homo sapiens, UniProt Q9Y5X5); assay: Displacement of [3H]FFRF-NH2 from human flag-tagged NPFF2 receptor expressed in CHO cells by scintillation counting
T2 sequence (Q9Y5X5 whole entry): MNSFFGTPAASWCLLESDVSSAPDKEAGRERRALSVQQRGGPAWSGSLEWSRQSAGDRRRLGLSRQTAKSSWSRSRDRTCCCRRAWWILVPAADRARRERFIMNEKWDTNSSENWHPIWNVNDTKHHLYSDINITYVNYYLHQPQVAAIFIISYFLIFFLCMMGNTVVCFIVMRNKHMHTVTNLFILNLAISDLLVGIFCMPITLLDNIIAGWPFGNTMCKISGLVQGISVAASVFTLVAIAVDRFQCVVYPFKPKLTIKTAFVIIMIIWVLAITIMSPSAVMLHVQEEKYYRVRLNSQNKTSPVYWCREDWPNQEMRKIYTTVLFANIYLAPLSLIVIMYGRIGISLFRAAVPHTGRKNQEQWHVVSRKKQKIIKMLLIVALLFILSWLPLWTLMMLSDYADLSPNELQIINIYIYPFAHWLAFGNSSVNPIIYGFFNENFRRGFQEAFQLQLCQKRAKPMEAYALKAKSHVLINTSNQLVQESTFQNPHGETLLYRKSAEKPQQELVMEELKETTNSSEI

[3] = target: T2, Neuropeptide FF receptor 2; assay: Displacement of [3H]FFRF-NH2 from human flag-tagged NPFF2 receptor expressed in CHO cells at 500 nM by scintillation counting
[4] = target: T2, Neuropeptide FF receptor 2; assay: Displacement of [3H]FFRF-NH2 from human flag-tagged NPFF2 receptor expressed in CHO cells at 5 uM by scintillation counting
[5] = target: T1, Neuropeptide FF receptor 1; assay: Displacement of [3H]FFRF-NH2 from human flag-tagged NPFF1 receptor expressed in CHO cells at 500 nM by scintillation counting
[6] = target: T1, Neuropeptide FF receptor 1; assay: Displacement of [3H]FFRF-NH2 from human flag-tagged NPFF1 receptor expressed in CHO cells at 5 uM by scintillation counting

Row | Compound | Ki [1] | Ki [2] | inhibition [3] | inhibition [4] | inhibition [5] | inhibition [6]
1 | NC(=O)[C@@H](Cc1ccccc1)NC(=O)[C@@H](CCCN=C(N)N)NC(=O)C12CC3CC(CC(C3)C1)C2 | 51 nM | 208 nM | – | – | – | –
2 | CCCCCC(=O)N[C@@H](CCCNC(=N)N)C(=O)N[C@@H](Cc1ccccc1)C(N)=O | – | – | 30% | 53% | 45% | 95%
3 | N=C(N)NCCC[C@H](NC(=O)c1ccc(Cl)cc1)C(=O)N[C@@H](Cc1ccccc1)C(N)=O | – | – | 3% | 7% | 37% | 59%
4 | N=C(N)NCCC[C@H](NC(=O)c1ccco1)C(=O)N[C@@H](Cc1ccccc1)C(N)=O | – | – | 3% | 23% | 42% | 92%
5 | N=C(N)NCCC[C@H](NC(=O)C1CCNCC1)C(=O)N[C@@H](Cc1ccccc1)C(N)=O (H-[Inp]-Arg-Phe-NH2) | – | – | 19% | 59% | 26% | 100%
6 | N=C(N)NCCC[C@H](NC(=O)c1ccc(Cl)c(Cl)c1)C(=O)N[C@@H](Cc1ccccc1)C(N)=O | – | – | 12% | 67% | 25% | 77%
7 | CC(C)(C)C(=O)N[C@@H](CCCNC(=N)N)C(=O)N[C@@H](Cc1ccccc1)C(N)=O | – | – | 38% | 48% | 35% | 91%
8 | N=C(N)NCCC[C@H](NC(=O)c1cc2ccccc2[nH]1)C(=O)N[C@@H](Cc1ccccc1)C(N)=O | – | – | 35% | 80% | 26% | 86%
9 | N=C(N)NCCC[C@H](NC(=O)c1ccncc1)C(=O)N[C@@H](Cc1ccccc1)C(N)=O | – | – | 2% | 21% | 18% | 74%
10 | Cc1ccc(CC(=O)N[C@@H](CCCNC(=N)N)C(=O)N[C@@H](Cc2ccccc2)C(N)=O)cc1 | – | – | 5% | 14% | 34% | 72%
11 | N=C(N)NCCC[C@H](NC(=O)c1ccc2nc[nH]c2c1)C(=O)N[C@@H](Cc1ccccc1)C(N)=O | – | – | 8% | 27% | 9% | 28%

Results, then the compound that gave them:

Row | Ki [1] | Ki [2] | inhibition [3] | inhibition [4] | inhibition [5] | inhibition [6] | Compound
12 | 0.9 nM | – | – | – | – | – | NC(=O)[C@H](Cc1ccccc1)NC(=O)[C@H](CCCN=C(N)N)NC(=O)CCN1c2ccccc2Sc2ccccc21
13 | 5 nM | 155 nM | – | – | – | – | NC(=O)[C@@H](Cc1ccccc1)NC(=O)[C@@H](CCCN=C(N)N)NC(=O)c1ccccc1-c1ccccc1
14 | 87 nM | 141 nM | – | – | – | – | NC(=O)[C@H](Cc1ccccc1)NC(=O)[C@H](CCCN=C(N)N)NC(=O)c1cccc2ccccc12
15 | 2 nM | 94 nM | – | – | – | – | NC(=O)[C@H](Cc1ccccc1)NC(=O)[C@@H](CCCN=C(N)N)NC(=O)c1ccc(-c2ccccc2)cc1
16 | 121 nM | 47 nM | – | – | – | – | NC(=O)[C@H](Cc1ccccc1)NC(=O)[C@H](CCCN=C(N)N)NC(=O)c1ccc2ccccc2n1
17 | – | – | 14% | 27% | 39% | 92% | N=C(N)NCCC[C@H](NC(=O)c1[nH]c2ccccc2c1-c1ccccc1)C(=O)N[C@@H](Cc1ccccc1)C(N)=O
18 | – | – | 27% | 56% | 26% | 82% | N=C(N)NCCC[C@H](NC(=O)c1cccc(-c2ccccc2)c1)C(=O)N[C@@H](Cc1ccccc1)C(N)=O
19 | – | – | 6% | 38% | 63% | 88% | N=C(N)NCCC[C@@H](NC(=O)c1cccc(-c2ccccc2)c1)C(=O)N[C@H](Cc1ccccc1)C(N)=O
20 | – | – | 5% | 52% | 26% | 82% | N=C(N)NCCC[C@H](NC(=O)Cc1ccccc1)C(=O)N[C@@H](Cc1ccccc1)C(N)=O
21 | – | – | 28% | 82% | 34% | 100% | N=C(N)NCCC[C@H](NC(=O)c1ccc2ccccc2n1)C(=O)N[C@@H](Cc1ccccc1)C(N)=O
